Reference: patent publication EP3046573B1, “AMYLIN ANALOGUES” (Zealand Pharma A/S, priority 2013, dated 2015)
Numbered stars: 1 amine (or outer) side, 2 acyl side, 3 side chain; on linkers, the order of the positions; unused ones are H or OH. Bridge positions count the residues as written; N and C are the ends. Square brackets hold non-standard residues; d marks the D form. Peptide text beside a SMILES is read from it. * marks the point of attachment. C20 diacid = O=C(O)CCCCCCCCCCCCCCCCCCC(=O)*; γGlu = O=C(O)[C@H](CCC(=O)[*:2])N[*:1]; NMeY = CN[C@@H](Cc1ccc(O)cc1)C(=O)O; NMeI = CC[C@H](C)[C@H](NC)C(=O)O; Sar = CNCC(=O)O

Key:
[1] = Assessment of chemical stability: normalized purity by RP-HPLC after incubation at 40 °C; assay type: physicochemical; conditions: normalized purity (T=0 set to 100), 0.2 mg/ml
Procedure: Samples of each test peptide were dissolved in MilliQ™ water, and the pH of the solution was adjusted to pH 4, pH 7.5 or pH 9, respectively, using either HCI or NaOH. The final peptide concentration was 0.2 mg/ml. Samples were placed in glass vials and incubated at 40 °C. The samples were analyzed by RP-HPLC on a C8 column with gradient elution using an ammonium formate/water eluent system, or on a C18 column with gradient elution using a trifluoroacetic acid/water eluent system. The area-percentage (area-%) of the main peak after incubation time T = t (relative to time T = 0) was determined by UV spectroscopy at 220 nm.
The purity was first determined as follows: Purity(area−%) = (area of main peak/total area of all peaks) × 100. [formula]
The purity was then normalized between time points by setting purity at time 0 (T=0) to 100 for each pH value for a given peptide, as follows: Normalised area−%at time t(T = t) = [area−%(T = t)/area−%(T = 0)] × 100. [formula]
The normalized purity values in Table 2 were determined after 7 days of incubation. Table 2. EC50, chemical stability and fibrillation data for compounds of the invention

[2] = target: T1, human calcitonin receptor (hCTR2) (Homo sapiens, UniProt P30988); assay: hCTR2 assay: induction of cAMP (AlphaScreen cAMP Assay kit) in COS7 cells expressing hCTR2; assay type: cell-based
T1 construct: expressed in transfected cells
T1 sequence (P30988 25-474): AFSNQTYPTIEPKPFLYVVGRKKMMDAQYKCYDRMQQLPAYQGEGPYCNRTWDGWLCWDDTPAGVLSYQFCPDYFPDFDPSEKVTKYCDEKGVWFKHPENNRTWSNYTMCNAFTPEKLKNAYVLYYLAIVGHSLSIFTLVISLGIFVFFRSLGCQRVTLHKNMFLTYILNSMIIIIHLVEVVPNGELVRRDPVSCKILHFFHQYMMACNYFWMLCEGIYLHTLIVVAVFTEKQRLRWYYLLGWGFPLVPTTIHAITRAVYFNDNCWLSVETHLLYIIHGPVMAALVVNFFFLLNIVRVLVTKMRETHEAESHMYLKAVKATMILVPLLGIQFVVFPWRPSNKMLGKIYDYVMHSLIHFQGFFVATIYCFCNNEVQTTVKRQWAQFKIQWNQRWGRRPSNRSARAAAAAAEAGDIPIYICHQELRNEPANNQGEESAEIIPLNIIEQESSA
Summary of the method: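 Stable RAMP-naive COS7 clone expressing hCTR2 was stimulated with increasing peptide concentrations in Tyrode buffer (pH 7.4) with 100 µM IBMX and 0.1% casein for 15 min at 37° C. Cells were lysed and cAMP measured by AlphaScreen. EC50 and efficacy relative to pramlintide came from 4PL curve fits.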

[3] = Solubility assessment (turbidity absorbance at 325 nm); assay type: physicochemical; conditions: stock 2 mg/ml diluted 1:1, ambient temperature (typically 25°C), n=1
Summary of the method: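 Peptide stock (2 mg/ml, water pH 2.5) diluted 1:1 into 100 mM acetate (pH 4.0, 5.0), histidine (pH 6.0, 7.0) or phosphate (pH 6.0–7.5) buffer; absorbance at 325 nm read at about 25°C, n=1. A325 ≤ 0.02 taken as solubility ≥ 1 mg/ml.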

Sprague Dawley (SD) rats = assay: Acute food intake and body weight in normal Sprague Dawley rats; assay type: in vivo; conditions: vehicle-corrected, dose 30 nmol/kg sc, once
Procedure: Sprague Dawley (SD) rats were obtained from Taconic A/S, Denmark. The animals arrived at least 7 days before the study start to allow acclimatization to experimental conditions. From arrival and throughout the study, the rats were housed in groups of 2 (n = 2) in a light-, temperature- and humidity-controlled room (reversed 12/12 h light/dark cycle: lights turned off during day-time and on during night-time; temperature 20-22°C; relative humidity 50-80%). Animals had access ad libitum to food (Altromin™ 1324, Brogaarden A/S, Gentofte, Denmark) and water (domestic quality tap water with citric acid added to pH ∼ 3.6) during the entire study. Stratification of rats was based on body weight (BW) on a cage-by-cage basis; mean BWs per cage were used as the basis for pairing four cages together in a group (n = 8 per group). A vehicle group and positive control group were included in each set of tests. Rats were dosed subcutaneously (sc) once in the morning immediately before turning off the lights, using a body weight-corrected dose of peptide (30 nmol/kg). Dosing volume was 5 ml/kg. Food intake was recorded manually at t = 0 (pre-dose) and at t = 4, 7, 10, 24, 48, 72 and 96 hours after dosing. Body weight was measured daily.
Statistical analyses on body weight were performed using GraphPad™ Prism version 5. The measured parameters were compared using unpaired t tests. Differences were considered statistically significant at p < 0.05. Data are means ± SEM; n =8.

[4] = Assessment of physical stability: fibril formation detected with Thioflavin T (ThT), lag-time; assay type: physicochemical; conditions: 1 mg/ml peptide, 40 µM ThT, FND = Fibrillation not detected
Procedure: Solutions containing (i) 1 mg/ml of test peptide, 40 µM ThT and 50 mM phosphate (Ph) buffer (pH 7.0), (ii) 1 mg/ml of test peptide, 40 µM ThT and 50 mM histidine (His) buffer (pH 7.0), and (iii) 1 mg/ml of test peptide, 40 µM ThT and 50 mM acetate (Ac) buffer (pH 4.0), were loaded in a 96-well black fluorescence plate (clear bottom) in triplicate. Data were collected at fixed intervals of 10 min, each preceded by 300 s of automixing (agitation), over a period of 96 hours at 40° C. Physical stability, expressed as lag-time of fibril formation (in hours), was defined as the intersection between two linear regressions representing the initial stable phase and the growth phase.

SMILES: CC[C@H](C)[C@@H](C(=O)N[C@@H](CC(C)C)C(=O)N[C@@H](CO)C(=O)N[C@@H](CO)C(=O)N[C@H](C(=O)N[C@@H](CC(N)=O)C(=O)N[C@H](C(=O)NCC(=O)N[C@@H](CO)C(=O)N[C@@H](CC(N)=O)C(=O)N[C@H](C(=O)N1CCC[C@H]1C(N)=O)[C@@H](C)O)C(C)C)[C@@H](C)O)N(C)C(=O)[C@H](C)NC(=O)CN(C)C(=O)[C@H](Cc1ccccc1)NC(=O)[C@H](CC(N)=O)NC(=O)[C@H](CC(N)=O)NC(=O)[C@@H](CO)NC(=O)[C@H](CO)NC(=O)[C@H](Cc1c[nH]cn1)NC(=O)[C@H](Cc1c[nH]cn1)NC(=O)[C@H](CC(C)C)NC(=O)[C@H](Cc1ccccc1)NC(=O)[C@H](CCC(=O)O)NC(=O)[C@H](C)NC(=O)[C@H](CC(C)C)NC(=O)[C@H](CCCNC(=N)N)NC(=O)[C@H](CCC(N)=O)NC(=O)[C@@H](NC(=O)[C@H](C)NC(=O)[C@@H]1CSSC[C@H](NC(=O)[C@H](CCCNC(=N)N)NC(=O)CC[C@H](NC(=O)CCCCCCCCCCCCCCCCCCC(=O)O)C(=O)O)C(=O)N[C@@H](CC(N)=O)C(=O)N[C@@H]([C@@H](C)O)C(=O)N[C@@H](C)C(=O)N[C@@H]([C@@H](C)O)C(=O)N1)[C@@H](C)O [Compound 31, [19CD]-isoGlu-RC()NTATC()ATQRLAEFLHHS-DSer-NNF-Gly(Me)-A-Ile(Me)-LSSTNVGSNTP-NH2] ({C20 diacid-γGlu}-RCNTATCATQRLAEFLHHS[dS]NNF[Sar]A[NMeI]LSSTNVGSNTP-NH2; disulfide 2-7)
- Chem. stability; 7 days, 40°C pH 4 ([1]; pH 4, 7 days): 80 area-%
- Chem. stability; 7 days, 40°C pH 7.5 ([1]; pH 7.5, 7 days): 66 area-%

SMILES: CC[C@H](C)[C@@H](C(=O)N[C@@H](CC(C)C)C(=O)N[C@@H](CO)C(=O)N[C@@H](CO)C(=O)N[C@H](C(=O)N[C@@H](CC(N)=O)C(=O)N[C@H](C(=O)NCC(=O)N[C@@H](CO)C(=O)N[C@@H](CC(N)=O)C(=O)N[C@H](C(=O)N(C)[C@@H](Cc1ccc(O)cc1)C(N)=O)[C@@H](C)O)C(C)C)[C@@H](C)O)N(C)C(=O)[C@H](C)NC(=O)CN(C)C(=O)[C@H](Cc1ccccc1)NC(=O)[C@H](CC(N)=O)NC(=O)[C@H](CC(N)=O)NC(=O)[C@H](CO)NC(=O)[C@H](CO)NC(=O)[C@H](Cc1c[nH]cn1)NC(=O)[C@H](Cc1c[nH]cn1)NC(=O)[C@H](CC(C)C)NC(=O)[C@H](Cc1ccccc1)NC(=O)[C@H](CCC(=O)O)NC(=O)[C@H](C)NC(=O)[C@H](CC(C)C)NC(=O)[C@H](CCCNC(=N)N)NC(=O)[C@H](CCC(N)=O)NC(=O)[C@@H](NC(=O)[C@H](C)NC(=O)[C@@H]1CSSC[C@H](NC(=O)[C@H](CCCNC(=N)N)NC(=O)CC[C@H](NC(=O)CCCCCCCCCCCCCCCCCCC(=O)O)C(=O)O)C(=O)N[C@@H](CC(N)=O)C(=O)N[C@@H]([C@@H](C)O)C(=O)N[C@@H](C)C(=O)N[C@@H]([C@@H](C)O)C(=O)N1)[C@@H](C)O [Compound 61, [19CD]-isoGlu-RC()NTATC()ATQRLAEFLHHSSNNF-Gly(Me)-A-Ile(Me)-LSSTNVGSNT-Tyr(Me)-NH2] ({C20 diacid-γGlu}-RCNTATCATQRLAEFLHHSSNNF[Sar]A[NMeI]LSSTNVGSNT[NMeY]-NH2; disulfide 2-7)
- EC50 [2]: 0.3 nM
- Solubility, Acetate buffer pH 4 ([3]; 100 mM acetate buffer pH 4.0): SS (SS indicates solubility ≥ 1mg/ml)
- Solubility, Acetate buffer pH 5 ([3]; 100 mM acetate buffer pH 5.0): SS (SS indicates solubility ≥ 1mg/ml)
- Solubility, Histidine buffer pH 6 ([3]; 100 mM histidine buffer pH 6.0): II (II indicates solubility ≤ 1 mg/ml)
- Solubility, Histidine buffer pH 7 ([3]; 100 mM histidine buffer pH 7.0): II (II indicates solubility ≤ 1 mg/ml)
- Solubility, Phosphate buffer pH 6 ([3]; 100 mM phosphate buffer pH 6.0): II (II indicates solubility ≤ 1 mg/ml)
- Solubility, Phosphate buffer pH 7 ([3]; 100 mM phosphate buffer pH 7.0): II (II indicates solubility ≤ 1 mg/ml)
- Solubility, Phosphate buffer pH 7.5 ([3]; 100 mM phosphate buffer pH7.5): II (II indicates solubility ≤ 1 mg/ml)
- Food intake inhibition (%) after 48 hours (Sprague Dawley (SD) rats; 48 hours): 24%
- Body weight loss (%) after 96 hours (Sprague Dawley (SD) rats; mean ± SEM, 96 hours, n = 8): 1 ± 1.6 %
- Fibrillation lag time (hours) pH 4.0 (Ac) ([4]; 50 mM acetate buffer pH 4.0, 96 hours at 40°C): FND
- Fibrillation lag time (hours) pH 7.0 (His) ([4]; 50 mM histidine buffer pH 7.0, 96 hours at 40°C): 3 hours
- Fibrillation lag time (hours) pH 7.0 (Ph) ([4]; 50 mM phosphate buffer pH 7.0, 96 hours at 40°C): 3 hours
